{"source": "paper PMC4750852", "about": "“Synergistic Malaria Parasite Killing by Two Types of Plasmodial Surface Anion Channel Inhibitors” (PLoS ONE, 2016)", "key": {"P. falciparum [1]": {"test_system": "P. falciparum", "assay": "Parasite growth inhibition, SYBR Green I assay, 72 h", "type": "cell-based, Plasmodium falciparum", "conditions": "for Improvement in growth IC50 in PGIM relative to standard medium: ratio of IC50 standard RPMI 1640-based medium to PGIM, present and prior studies [2]", "method": "Efficacy of inhibitors against in vitro parasite growth was evaluated with the SYBR Green I assay for parasite nucleic acid as described. […] These cultures were then lysed (20 mM Tris, 10 mM EDTA, 0.016% saponin, 1.6% Triton X-100, pH 7.5) and incubated for 45 min with SYBR Green I nucleic acid stain at a 5000-fold dilution (Invitrogen, Waltham, MA). The mean fluorescence of replicate wells (excitation, 485 nm; emission, 528 nm) was used to quantify parasite DNA content and growth after normalization to in-plate controls with and without 20 μM chloroquine (100 and 0% growth inhibition, respectively)."}, "[2]": {"test_system": "plasmodial surface anion channel (PSAC), primary transport", "assay": "Osmotic lysis kinetics, primary transport (sorbitol / alanine uptake) in infected erythrocytes", "type": "cell-based, Plasmodium falciparum", "method": "(§1) Enriched cells were washed in HBS (150 mM NaCl, 20 mM Na-HEPES, 0.1 mg/mL BSA, pH 7.5) and used for continuous tracking of osmotic lysis in permeant solutes as described. PSAC-mediated uptake was initiated by resuspension of cells in osmotic lysis solutions containing 20 mM Na-HEPES, 0.1 mg/mL BSA with permeant solute or salt added at 280–290 mOsm; where present, inhibitors were added from concentrated stocks in DMSO. Osmotic swelling and lysis at 37°C was then kinetically tracked by recording the transmittance of 700 nm light through the 1 mL cell suspension (Beckman Coulter spectrophotometer, Indianapolis, IN). Regular manual resuspension was used to minimize the effects of cell settling. Solute permeability was calculated using locally developed script as described. The data are presented with normalization to inhibitor-free controls included in each experiment."}, "[3]": {"test_system": "plasmodial surface anion channel (PSAC), residual transport", "assay": "Osmotic lysis kinetics, residual PhTMA+ transport in infected erythrocytes (with a primary component inhibitor present)", "type": "cell-based, Plasmodium falciparum", "method": "as §1"}, "P. falciparum [4]": {"test_system": "P. falciparum", "assay": "Fixed-ratio combination growth inhibition, isobologram analysis", "type": "cell-based, Plasmodium falciparum", "conditions": "combination of 0.82 μM cpd 1 and 0.35 μM PRT1-20", "method": "Efficacy of inhibitors against in vitro parasite growth was evaluated with the SYBR Green I assay for parasite nucleic acid as described. […] These cultures were then lysed (20 mM Tris, 10 mM EDTA, 0.016% saponin, 1.6% Triton X-100, pH 7.5) and incubated for 45 min with SYBR Green I nucleic acid stain at a 5000-fold dilution (Invitrogen, Waltham, MA). The mean fluorescence of replicate wells (excitation, 485 nm; emission, 528 nm) was used to quantify parasite DNA content and growth after normalization to in-plate controls with and without 20 μM chloroquine (100 and 0% growth inhibition, respectively). Growth inhibition resulting from combinations of PSAC inhibitors was similarly evaluated using fixed ratios of the two compounds [28]. For each experiment, […] of the two inhibitors (10:0, 9:1, …, 1:9, 0:10) were prepared based on the optimal concentrations of each in isolated growth inhibition dose responses. For each ratio, serial dilutions were used to generate dose responses and permit calculation of IC50 values by interpolation; in each experiment, matched dose responses were included for each compound in isolation. […] For each inhibitor combination, synergistic action was quantified using the ∑FIC50 (sum of fractional inhibitor concentrations producing 50% block); values of this parameter below 0.7 indicate strong synergistic action."}, "[5]": {"test_system": "plasmodial surface anion channel (PSAC), residual transport", "assay": "Osmotic lysis kinetics, residual proline transport with 200 μM furosemide", "type": "cell-based, Plasmodium falciparum", "conditions": "added to 200 μM furosemide; maximal inhibition less than with PhTMA+", "method": "as §1, with “Transport measurements used synchronous trophozoite-stage infected erythrocytes enriched from P. falciparum cultures by Percoll/sorbitol separation to > 95% parasitemia. Enriched” for “Enriched”"}, "[6]": {"test_system": "P. knowlesi channel (PSAC)", "assay": "Osmotic lysis kinetics in rhesus erythrocytes infected with P. knowlesi", "type": "cell-based", "conditions": "3 μM inhibitor with 200 μM furosemide", "method": "as §1"}}, "note": "Where two headings read alike, the source gives them in different places.", "data": [{"smiles": "Cc1ccc(C)c(N2CCN(S(=O)(=O)c3ccc(-c4ccc(=O)[nH]n4)s3)CC2)c1", "note": "[ISG-21, reference compound]", "values": [{"measurement": "IC50", "setting": "P. falciparum [1]; PGIM", "result": "17.3 ± 1", "unit": "nM"}, {"measurement": "IC50", "setting": "P. falciparum [1]; PGIM with isoleucine increased to 34 μM", "result": "1250 ± 100", "unit": "nM"}, {"measurement": "Improvement in growth IC50 in PGIM relative to standard medium", "setting": "P. falciparum [1]", "result": "significantly improved activity in PGIM"}, {"measurement": "Effect on sorbitol uptake at selected concentration", "setting": "[2]; 100 nM ISG-21, 2 μM TP-52, residual uptake of PhTMA+ remains", "result": "abolish sorbitol uptake"}, {"measurement": "Fold less effective against residual PhTMA+ transport than against sorbitol uptake", "setting": "[3]; comparison of K0.5 values, PhTMA+ + 200 μM furosemide vs sorbitol", "result": "up to 3000 fold"}]}, {"smiles": "CCCCOc1ccc(C(=O)Nc2ccc(-c3nn4c(C)nnc4s3)cc2)cc1", "note": "[PRT1-20]", "values": [{"measurement": "Parasite growth inhibition, single compound", "setting": "P. falciparum [1]; applied individually, standard RPMI-1640 based media", "result": "low micromolar concentrations"}, {"measurement": "Action against the primary transport component compared to PRT-1", "setting": "[2]; sorbitol without furosemide, dose response", "result": "significantly reduced action"}, {"measurement": "Concentration in the combination as share of the compound's single drug IC50", "setting": "P. falciparum [4]", "result": "approximately 10%"}, {"measurement": "Activity against residual PhTMA+ transport compared to PRT-1", "setting": "[3]; PhTMA+ with 200 μM furosemide, dose response", "result": "improved activity"}]}, {"smiles": "CCOc1ccc(C(=O)Nc2ccc(-c3nn4c(C)nnc4s3)cc2)cc1", "note": "[PRT-1]", "values": [{"measurement": "Improvement in growth IC50 in PGIM relative to standard medium", "setting": "P. falciparum [1]", "result": "did not show measurable changes in efficacy in PGIM"}, {"measurement": "Effect on residual proline transport", "setting": "[5]", "result": "clearly reduced proline transport further"}, {"measurement": "Effect on residual PhTMA+ transport via the P. knowlesi channel", "setting": "[6]", "result": "inhibit"}, {"measurement": "IC50", "setting": "[2]; sorbitol without furosemide, mean ± S.E.M., read-out: K0.5 against sorbitol uptake (primary channel route)", "result": "590 ± 43", "unit": "nM"}, {"measurement": "IC50", "setting": "[3]; PhTMA-Cl plus 100 nM ISG-21, read-out: K0.5 for block of residual PhTMA+ transport", "result": 44, "unit": "nM"}, {"measurement": "IC50", "setting": "[3]; PhTMA-Cl plus 2 μM TP-52, read-out: K0.5 for block of residual PhTMA+ transport", "result": 56, "unit": "nM"}, {"measurement": "IC50", "setting": "[3]; in combination with 200 μM furosemide, mean ± S.E.M., read-out: K0.5 for block of residual PhTMA+ uptake", "result": "190 ± 3", "unit": "nM"}]}, {"smiles": "O=C(COc1ccc2ccccc2c1)Nc1cccc(-c2nc3ncccc3o2)c1", "note": "[PRT-3]", "values": [{"measurement": "Improvement in growth IC50 in PGIM relative to standard medium", "setting": "P. falciparum [1]", "result": "did not show measurable changes in efficacy in PGIM"}, {"measurement": "Effect on residual PhTMA+ transport via the P. knowlesi channel", "setting": "[6]", "result": "inhibit"}]}]}
